From article PMC5393024, “Discovery and characterization of natural tropolones as inhibitors of the antibacterial target CapF from Staphylococcus aureus” (Scientific Reports, 2015)

How the values were obtained:
[1] = target: T1, CapF lacking the His6-tag (Staphylococcus aureus, UniProt A0A0H3JP37); assay: ITC binding to CapF lacking the His6-tag
T1 sequence (A0A0H3JP37 1-369): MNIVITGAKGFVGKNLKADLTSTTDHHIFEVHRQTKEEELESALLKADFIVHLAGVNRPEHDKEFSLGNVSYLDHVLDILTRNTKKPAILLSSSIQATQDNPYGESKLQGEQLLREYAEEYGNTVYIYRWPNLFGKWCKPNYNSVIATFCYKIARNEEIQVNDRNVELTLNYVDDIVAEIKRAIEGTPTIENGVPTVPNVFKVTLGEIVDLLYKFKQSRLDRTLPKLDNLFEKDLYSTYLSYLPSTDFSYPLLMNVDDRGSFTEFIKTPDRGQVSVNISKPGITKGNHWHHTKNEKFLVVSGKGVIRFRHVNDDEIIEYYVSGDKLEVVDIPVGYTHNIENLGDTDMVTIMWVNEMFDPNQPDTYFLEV
Protocol: A control experiment with CapF lacking the His6-tag was carried to rule out the possibility of spurious effects caused by the affinity tag (Supplementary Information Figure S4).
Figure S4. Binding of 3-isopropyl-tropolone to CapF lacking the His6-tag. Titration of CapF (220 µM) with 2.2 mM inhibitor in a buffer composed of 10 mM HEPES (pH 7.5), 150 mM NaCl, and 5% DMSO at 25 °C. A construct of full-length CapF bearing a cleavable His6-tag was prepared and purified exactly as that of CapF Δ57-70 (see Methods section for the detailed protocol of CapFΔ57-70), except that (i) the dialysis buffer after to reconstitute the enzyme with Zn2+ contained 150 mM NaCl (instead of 50 mM) and 12.5 µM ZnCl2 (instead of 10 µM), and (ii) the buffer of the size exclusion chromatography step contained 10 mM HEPES (instead of 50 mM) and 150 mM NaCl (instead of 50 mM). The values of the thermodynamic parameters […]
kcal mol-1, and n = 0.92 ± 0.1.
(§1) (1 picture or pasted object on this page, not shown here)

[2] = ITC titration of free Zn2+ in solution; type: binding; details: 150 µM Zn2+ (ZnCl2) titrated with 1.65 mM compound
Excerpt: Because tropolone and its analogs have been described as metal chelators in proteins, we anticipated that binding of the inhibitor to CapF is governed by the Zn^2+ ion present in the cupin domain[12]. To confirm this hypothesis, we performed two different types of experiments. First, we determined the binding properties of 3-isopropenyl-tropolone to apo-CapF (i.e. Zn^2+-depleted CapF) and to holo-CapF (reconstituted with Zn^2+) by isothermal titration calorimetry (ITC). The stoichiometry is consistent with a 1:1 binding model.
Figure S3. Zn2+ governs the binding of inhibitor to CapF. (a) Titration of 150 µM Zn2+ (prepared
from ZnCl2) with 1.65 mM 3-isopropenyl-tropolone. (b) Fluorescence of the Zn2+-sensitive dye
FluoZin-3 (1.0 µM) in the presence of CapF (1 µM), CapF (1 µM) with 3-isopropenyl-tropolone […]

CapE = assay: HPLC assay employing only CapE; type: biochemical, Staphylococcus aureus; details: CapF not present
Protocol: For that purpose, an HPLC-based assay monitoring the consumption of substrate and the appearance of product was employed (Fig. 2b)[12]. Whereas in the absence of 3-isopropenyl-tropolone the substrate was converted into product with nearly quantitative yield (91%), in the presence of 1 mM 3-isopropenyl-tropolone the peaks corresponding to substrate and product were largely absent (their combined areas were <18%). Instead, a large peak corresponding to the byproduct generated by the enzyme CapE under thermodynamic control was observed (80% yield as judged from the area under the curve). To confirm that inhibition of 3-isopropenyl-tropolone is specific for CapF we performed an additional experiment employing only CapE, which is the enzyme generating the substrate for CapF in the functional assay (Supplementary Information Figure S2).
Figure S2. Elution profile of compounds after incubation of the substrate UDP-D-GlcNAc with
CapE in the absence (red line) and presence (black line) of 3-isopropenyl-tropolone. In this
experiment CapF was not present. Experimental conditions are described in the Methods section.
The blue, red and green triangles indicate the elution peaks of product, substrate, and by-product,
as §1

CapF = assay: SPR binding to immobilized CapF; set-up: species or system Staphylococcus aureus; details: 25 °C
Excerpt: To identify small-molecule inhibitors of CapF we employed fragment-based methodologies (Supplementary Information Figure S1)[13][14]. A fragment library consisting of 1,994 compounds was obtained from the Drug Discovery Initiative program (The University of Tokyo, see the Methods section for an brief description of the features of this library). This library was employed to screen for potential inhibitors of CapF using the technique of surface plasmon resonance (SPR). This screening methodology identified compounds with the ability to bind to the target protein but not by their inhibitory potency. Inhibition was only assessed with the selected hit compound using two separate enzymatic assays (see below). To maximize the sensitivity of the SPR signal the microtiter-based assay mode was employed. The values of the parameters CV (1.0%) and Z-factor (0.93) were monitored throughout the screen. […]
A total of 15 compounds selected from the library screening were next evaluated with SPR at three different concentrations (100 μM, 10 μM, and 1 μM) to detect compounds giving false positive signals, which are generally known as nonspecific and promiscuous binders. […] Lastly, we determined the binding affinity of these five compounds for CapF with SPR. […]

WT CapF = assay: DSC thermal stability of WT CapF; type: binding, Staphylococcus aureus; details: 24 μM protein, 240 μM inhibitor
Protocol: Thermal stability of CapF was examined by DSC in a ultrasensitive VP-capillary micro-calorimeter (Microcal). Prior to the experiment the protein was equilibrated in a buffer composed of 50 mM HEPES (pH 7.5), 50 mM NaCl and 5% DMSO. The concentration of protein and inhibitor were adjusted to 24 μM and 240 μM, respectively. The samples were heated between 10 and 110 °C at a scan rate of 1 °C/min. Data analysis was carried out with ORIGIN7 using a two-state transition model.

## C=C(C)c1ccccc(=O)c1O [3-isopropenyl-tropolone]
[1]
  Kd: 13 ± 1 µM
[1]; ITC, 25 °C
  -TΔS: -12.6 ± 1.7 kJ/mol
  n: 0.92 ± 0.1
  ΔH: -15.1 ± 1.3 kJ/mol
[2]
  binding to free-Zn^2+ in solution by ITC: not detected
CapE
  HPLC profile of the reaction products of CapE in presence of inhibitor: not altered
CapF
  binding affinity for CapF with SPR: sub-millimolar
WT CapF
  ΔTM (decrease in thermal stability): 5.2 ± 0.4 °C
WT CapF; WT CapF alone 59.9 ± 0.2
  TM: 54.7 ± 0.2 °C
